Test results reported in patent US4415574A, “Soluble N2 substituted derivatives of 2,4-diamino 5-benzyl pyrimidine, process for their preparation and medicaments containing them” (S. A. Panmedica, priority 1981, dated 1983).
Like-named read-outs stand apart in the source and are kept apart here.

Legend:
COLI [1] = assay: Inhibiting minimum concentration (I.M.C.), activity relative to trimethoprime, OXOIDE COLI MEDIUM 4; assay type: cell-based; details: for % activity with respect to the base: ratio of I.M.C. to trimethoprime; for % activity with respect to the base corrected by molecular weight: ratio to trimethoprime
Method: (§1) The antibacterial activity of the derivatives according to the invention were tested in vitro by determining the inhibiting minimum concentrations (I.M.C.) on different germs.

COLI [2] = assay: Inhibiting minimum concentration (I.M.C.), activity relative to trimethoprime, MULLER HINTON COLI MEDIUM 4; assay type: cell-based; details: for % activity with respect to the base: ratio of I.M.C. to trimethoprime; for % activity to the base corrected by molecular weight: ratio to trimethoprime
Method: as §1

in vivo = details: mouse
BACIL PUMILUS = assay: Inhibiting minimum concentration (I.M.C.), activity relative to trimethoprime, MULLER HINTON BACIL PUMILUS MEDIUM; assay type: cell-based; details: for % activity with respect to the base: ratio of I.M.C. to trimethoprime; for % activity with respect to the base corrected by molecular weight: ratio to trimethoprime
Method: as §1

[3] = Solubility in water / pH of aqueous solutions; assay type: physicochemical; details: pH value
dehydrofolate-reductase = details: cited from earlier work
bacteria = details: Gram-positive cocci, Gram-negative cocci and Gram negative bacilli; cited from earlier work

Row | SMILES | % activity with respect to the base (COLI [1]) [%] | % activity with respect to the base corrected by molecular weight (COLI [1]) [%] | % activity with respect to the base (COLI [2]) [%] | % activity to the base corrected by molecular weight (COLI [2]) [%] | LD50 (in vivo; iv, read-out: LD 50 I.V.) [mg/kg] | LD50 (in vivo; po, read-out: LD 50 by mouth) [mg/kg] | % activity with respect to the base (BACIL PUMILUS) [%] | % activity with respect to the base corrected by molecular weight (BACIL PUMILUS) [%] | pH at which the derivative is insoluble [3] | interference with dehydrofolate-reductase (words, prior art) (dehydrofolate-reductase) | antibacterial activity (words, prior art) (bacteria)
1 | COc1ccccc1C(Nc1ncc(Cc2cc(OC)c(OC)c(OC)c2)c(N)n1)S(=O)(=O)O (stereo not shown) [Example 15, N2 (2-Methoxy Phenyl) Methane Sulfonic Acid of 2,4-Diamino 5-(3,4,5-Trimethoxy Benzyl) Pyrimidine] | 64 | 107 | 47 | 73 | 1000 | > 12000 | 60 | 106 | – | – | –
2 | COc1cc(Cc2cnc(NC(c3ccc4c(c3)OCO4)S(=O)(=O)O)nc2N)cc(OC)c1OC (stereo not shown) [Example 18, N2 (3,4-Dioxy Methylene Phenyl) Methane Sulfonic Acid of 2,4-Diamino 5-(3,4,5-Trimethoxy Benzyl) Pyrimidine] | 27 | 48 | 14.85 | 26 | – | > 12000 | 21.4 | 38 | – | – | –
3 | COc1cc(Cc2cnc(NC(c3ccco3)S(=O)(=O)O)nc2N)cc(OC)c1OC (stereo not shown) [Example 19] | 58.4 | 95 | 69.4 | 112 | 900 | > 12500 | 49.5 | 80 | – | – | –
4 | COc1cc(Cc2cnc(NC(c3ccccn3)S(=O)(=O)O)nc2N)cc(OC)c1OC (stereo not shown) [Example 22, N2 2-Pyridyl Methane Sulfonic Acid of 5-(3,4,5-Trimethoxy Benzyl) 2,4-Diamino Pyrimidine] | – | – | – | – | – | – | – | – | 5.6 | – | –
5 | CCOc1cc(C(Nc2ncc(Cc3cc(OC)c(OC)c(OC)c3)c(N)n2)S(=O)(=O)O)ccc1O (stereo not shown) [Example 24b, N2 (3-Ethoxy 4-Hydroxy) Phenyl Methane Sulfonic Acid of 5-(3,4,5-Trimethoxy Benzyl) 2,4-Diamino Pyrimidine] | 48.7 | 93 | 43.9 | 84 | – | – | 42.2 | 79 | – | – | –
6 | CCOc1cc(C(Nc2ncc(Cc3cc(OC)c(OC)c(OC)c3)c(N)n2)S(=O)(=O)O)ccc1O (stereo not shown) [Example 24d, N2 (3-Ethoxy 4-Hydroxy) Phenyl Methane Sulfonic Acid of 5-(3,4,5-Trimethoxy Benzyl) 2,4-Diamino Pyrimidine] | 13.1 | 26 | 23.2 | 46 | – | – | 37.0 | 74 | – | – | –
7 | CCOc1cc(C(Nc2ncc(Cc3cc(OC)c(OC)c(OC)c3)c(N)n2)S(=O)(=O)O)ccc1O (stereo not shown) [Example 24e, N2 (3-Ethoxy 4-Hydroxy) Phenyl Methane Sulfonic Acid of 5-(3,4,5-Trimethoxy Benzyl) 2,4-Diamino Pyrimidine] | 21.3 | 46 | 40.0 | 86 | – | – | 40.0 | 86 | – | – | –
8 | CCOc1cc(C(Nc2ncc(Cc3cc(OC)c(OC)c(OC)c3)c(N)n2)S(=O)(=O)O)ccc1O (stereo not shown) [Example 24f, N2 (3-Ethoxy 4-Hydroxy) Phenyl Methane Sulfonic Acid of 5-(3,4,5-Trimethoxy Benzyl) 2,4-Diamino Pyrimidine] | 27.4 | 63 | 40.3 | 92 | 1000 | > 12000 | 31.8 | 73 | – | – | –
9 | COc1cc(Cc2cnc(NC(c3ccccc3O)S(=O)(=O)O)nc2N)cc(OC)c1OC (stereo not shown) [Example 25d, N2 (2-HYDROXY) PHENYL METHANE SULFONIC ACID OF 5-(3,4,5-TRIMETHOXY BENZYL) 2,4-DIAMINO PYRIMIDINE] | 28.3 | 53 | 45.4 | 85 | – | – | 55.5 | 104 | – | – | –
10 | COc1cc(Cc2cnc(NC(c3ccccc3O)S(=O)(=O)O)nc2N)cc(OC)c1OC (stereo not shown) [Example 25e, N2 (2-HYDROXY) PHENYL METHANE SULFONIC ACID OF 5-(3,4,5-TRIMETHOXY BENZYL) 2,4-DIAMINO PYRIMIDINE] | 36.6 | 74 | 45.8 | 93 | – | – | 75.8 | 154 | – | – | –
11 | COc1cc(Cc2cnc(NC(c3ccccc3O)S(=O)(=O)O)nc2N)cc(OC)c1OC (stereo not shown) [Example 25f, N2 (2-HYDROXY) PHENYL METHANE SULFONIC ACID OF 5-(3,4,5-TRIMETHOXY BENZYL) 2,4-DIAMINO PYRIMIDINE] | 38.3 | 84 | 55.4 | 120 | – | – | 73.1 | 159 | – | – | –
12 | COc1cc(Cc2cnc(N)nc2N)cc(OC)c1OC [Trimethoprime, 5-(3,4,5-trimethoxybenzyl) 2,4diamino pyrimidine] | – | – | – | – | – | – | – | – | – | interferes with dehydrofolate-reductase | very wide-spectrum antibacterial agent
